# Results published in US6811970B2, “Assay for identifying inhibitors of HIV RT dimerization” (priority 2001, dated 2004).
# Tests used:
# [1] = molecular target: HIV-1 RT (Human immunodeficiency virus type 1 group M subtype B, UniProt P04585); settings: Tachedjian et al., 2001, PNAS, 7188-7193; cited from earlier work
# [2] = molecular target: T1, WT p66/p66 RT (Human immunodeficiency virus type 1 group M subtype B, UniProt P04585); assay: Inhibition of WT p66/p66 RT (data not shown); format: biochemical, HIV-1
# T1 construct: IPTG-dependent expression of the non-HIS-tagged 66 kDa RT subunit; made in house; host or cells: E. coli JM109 (pKK-RT66WT)
# Source text: The P2C/C38S/C280S p66/p66 RT chemically alkylated with the Eu-N1-iodoacetamido chelate retains approximately 80% of the RDDP activity of the unmodified protein (Table 1). […] Thus, the genetic and chemical manipulations of RT required to prepare reagents for the dimerization assay appear to have little effect on the response of the enzyme within the parameters of the assay protocol.
# [3] = molecular target: T2, Eu^3+-labeled P2C/C38S/C280S p66/p66 RT (Human immunodeficiency virus type 1 group M subtype B, UniProt P04585, C625S/C867S/P588C); assay: Inhibition of Eu3+-labeled P2C/C38S/C280S p66/p66 RT by HIV RT inhibitors; format: biochemical, HIV-1; settings: P2C/C38S/C280S p66/p66 RT alkylated with Eu-N1-iodoacetamido chelate
# T2 construct: made in house; host or cells: E. coli JM109 (pKK-RT66-P2C), then chemical alkylation
# Protocol: Purified P2C/C38S/C280S p66/p66 RT was concentrated to approximately 20 μM (˜2.5 mg/ml) in 50 mM Tris-HCl buffer (pH 7.9 at 20° C.) containing 100 mM NaCl and 1 mM TCEP-HCl (Tris(2-carboxyethyl)phosphine hydrochloride (Pierce)) at room temperature. An aliquot of Eu-N1-iodoacetamido chelate protein-modification reagent (prepared as a 5 mM stock solution in DMSO) was added to provide an approximately 20-fold molar excess relative to the p66 subunit concentration. The alkylation reaction was allowed to proceed for up to 6 hours at room temperature. Alternatively, the reaction may be carried out overnight at 4° C. Upon completion of the reaction, an excess of DTT was added to consume unreacted Eu-N 1-iodoacetamido chelate. The alkylated p66/p66 RT was separated from the DTT-reagent conjugate by two passages through a NAPT™ 25 column equilibrated with a 25 mM Tris-HCl buffer (pH 7.5, 20° C.) containing 60 mM MgCl2 and 50% glycerol. The stoichiometry of labeling was generally found to be between 0.7-1 mol of Eu-N1-iodoacetamide per mol of p66 RT subunit (i.e., 1.5-2 mol/mol p66/p66 RT homodimer).
# [4] = molecular target: T3, unlabeled P2C/C38S/C280S p66/p66 RT (Human immunodeficiency virus type 1 group M subtype B, UniProt P04585, C625S/C867S/P588C); assay: Inhibition of unlabeled P2C/C38S/C280S p66/p66 RT by HIV RT inhibitors; format: biochemical, HIV-1
# T3 construct: made in house; host or cells: E. coli JM109 (pKK-RT66-P2C)
# [5] = molecular target: HIV-1 RT p66/p51 heterodimer (Human immunodeficiency virus type 1 group M subtype B, UniProt P04585, C625S/C867S/P588C); assay: TRF microplate assay of p66/p51 RT heterodimer formation; settings: compound at 10 μM; dimer formation 6 h; urea diluted 3.5 M to 0.35 M
# Protocol: The general principle of the assay involves mixing of His6x-p51 with fluorophore-labeled p66 RT in solution, with subsequent solid-phase capture of resulting His6x-p51/fluorophore-labeled p66 RT heterodimer on Ni^2+-NTA microplates. After washing to remove unbound material, the amount of microplate-associated fluorescence is measured in an appropriate fluorescence plate reader.
# In a total volume of 20 μl, mix 100 pmol of purified His6x-p51 RT subunit and 200 pmol of Eu-N1-iodoacetamido chelate labeled p66 RT subunit (i.e., 100 pmol RT p66/p66 homodimer) with urea (prepared in 25 mM Tris-HCl pH 7.5, 20° C., containing 100 mM MgCl2) to provide a final concentration of 3.5 M urea. Incubate this mixture for 1 h at room temperature.
# Dilute this solution into 200 μL of a solution of the compound of interest at 10 μM (in 25 mM Tris-HCl pH 7.5, 20° C., containing 50 mM Na2SO4) contained in a well of a 96-well Ni-NTA HiSorb Plate.
# The dilution step provides a 10-fold dilution to reduce the urea concentration from 3.5M to 0.35M, thereby allowing formation of the RT p66/p51 heterodimer. Dimer formation is allowed to proceed for 6 h, then the plates are washed 3× with Delfia wash buffer containing 200 μM DTPA. After washing, 200 μL of the Delfia enhancement solution is added to each well, followed by incubation at room temperature for 30 minutes.
smiles,measurement,setting,value
Cc1ccnc2c1NC(=O)c1cccnc1N2C1CC1 [Nevirapine],Effect on dimerization of the HIV-1 RT as reported,[1],chemical enhancers of dimerization
CCn1c(=O)c(C)cn([C@@H]2O[C@H](CO[Si](C)(C)C(C)(C)C)C3(OS(=O)(=O)C=C3N)[C@H]2O[Si](C)(C)C(C)(C)C)c1=O (some centres unmarked) [TSAOe3T],Sensitivity of WT p66/p66 RT to inhibition compared with unmodified P2C/C38S/C280S p66/p66 mutant,[2],equally sensitive
same,IC50,[3],3 µM
same,IC50,[4],3 µM
Cc1cn([C@@H]2O[C@H](CO[Si](C)(C)C(C)(C)C)[C@@]3(OS(=O)(=O)C=C3N)[C@H]2O[Si](C)(C)C(C)(C)C)c(=O)n(C)c1=O [TSAOm^3T],"TRF signal relative to control (RT dimerization, FIG. 5B)",[5],decreases the signal
